Measured values published in the METLIN SMRT retention time set (Domingo-Almenara et al. 2019).

Experiment: gradient 5% acetonitrile 3 min, to 50% in 2 min, to 85% in 15 min, held 3 min, 100 µL/min
Details: column: Zorbax Extend-C18 2.1 x 50 mm; eluents: water / acetonitrile, 0.1% formic acid
Method in brief: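 Using water and acetonitrile that each contained 0.1% formic acid, mixtures of ~100 pure standards were separated at 100 μL/min on a Zorbax Extend-C18 column (2.1 × 50 mm, 1.8 μm). The HPLC fed a quadrupole time-of-flight mass spectrometer working in positive and negative ionization mode, with dead and dwell volumes of 40 μL and 900 μL. Data were acquired over 3 months. Retention time was read from computationally picked adduct peaks after manual inspection of each.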
In the case of `CC(=O)c1cccc(NC(=O)N2CCc3c(c(COc4ccc(F)cc4)nn3C)C2)c1`, the RP-LC retention time was 801 s. `CCCCOc1ccc(-c2nc(C3CC(=O)N(c4ccc(F)cc4)C3)no2)cc1` (stereo unspecified) gave an RP-LC retention time of 1240 s. In the case of `COc1ccc(CN2C=C(C(=O)OCc3nc(C4CC4)no3)C(C)=NS2(=O)=O)cc1`, the RP-LC retention time was 972 s. Compound `COc1ccc(CNC(=O)Cn2c(C)nc3onc(C)c3c2=O)cc1` has an RP-LC retention time of 711 s. For `O=C(CCCc1ccccc1)NC1CCN(c2nnc3ccc(Cl)cn23)CC1`, the RP-LC retention time was 639 s. Work on `CSc1ccc(CNC(=O)C2CCCN(c3nccn4nc(-c5ccc(F)cc5)cc34)C2)cc1` (stereo unspecified) yielded an RP-LC retention time of 951 s. Work on `Cc1ccc(C)c(N2CCN(c3ccnc(SCC(=O)Nc4cc(F)ccc4F)n3)CC2)c1` yielded an RP-LC retention time of 1120 s. In the case of `CC(NS(=O)(=O)CCCOc1ccc2c(c1)OCO2)c1ccccc1` (stereo unspecified), the RP-LC retention time was 750 s. Work on `COc1cc(NC(=O)C2CN(S(=O)(=O)C3CC3)CC23CCCCC3)cc(OC)c1` (stereo unspecified) yielded an RP-LC retention time of 955 s. `COc1ccc(-c2cc(N3CCN(C(=O)NC(C)C)CC3)ncn2)cc1OC` showed an RP-LC retention time of 602 s. With `CCn1cc(C(=O)NCC2CC2)c(S(=O)(=O)N2CCSCC2)n1` the RP-LC retention time was 817 s. For `Cn1cccc1C(=O)C(=O)Nc1ccc(Cl)cc1F`, the RP-LC retention time was 1080 s. In the case of `Cc1ccc2nc3sc(C(=O)NCC4COc5ccccc5O4)cc3c(=O)n2c1` (stereo unspecified), the RP-LC retention time was 819 s. With `COc1ccc(-c2nc3n(c2C(=O)Nc2nc(-c4ccc(C)cc4)cs2)CCS3(=O)=O)cc1` the RP-LC retention time was 1060 s. With `Cc1cc(OCC(=O)N2CCC(C)CC2)nc(-c2ccc(F)cc2)n1` the RP-LC retention time was 1040 s. Compound `CC(C)(C)C(=O)N1CCN(Cc2noc(-c3ccc(F)cc3)n2)CC1` has an RP-LC retention time of 712 s. Compound `COc1cccc(C2Cn3nnc(-c4nc(-c5ccccc5F)no4)c3CO2)c1` (stereo unspecified) has an RP-LC retention time of 1100 s. Work on `COCCN1CCC2(CC1)CN(Cc1cccc(F)c1)Cc1ccccc1O2` yielded an RP-LC retention time of 629 s. In the case of `CC(=O)c1cccc(NC(=O)Cn2c(-c3ccc(Cl)cc3)nc(C)cc2=O)c1`, the RP-LC retention time was 1060 s. Compound `CC1(C)CC(=O)C2=C(C1)N(CCCN1CCOCC1)C(=O)C2(NC(=O)c1ccccc1)C(F)(F)F` (stereo unspecified) has an RP-LC retention time of 634 s. For `Cn1cc(CC(=O)N2CCN(c3ncccn3)CC2)c2ccccc21`, the RP-LC retention time was 720 s. Work on `COc1ccc(-c2noc(C3CC(=O)N(c4cc(C)cc(C)c4)C3)n2)cc1` (stereo unspecified) yielded an RP-LC retention time of 1040 s. Work on `Cc1cc(C(=O)N2CCC(CC(=O)NC3CC3)C2)n(C)n1` (stereo unspecified) yielded an RP-LC retention time of 585 s. In the case of `O=C(CSc1nnc2scc(-c3ccc(Cl)cc3)n12)Nc1ccccc1F`, the RP-LC retention time was 839 s. Work on `CCn1nnc(NCc2ccc(-c3ccc(C)c(Cl)c3)o2)n1` yielded an RP-LC retention time of 1090 s. `O=C(Nc1cnc2ccccc2c1)c1cccc([N+](=O)[O-])c1` gave an RP-LC retention time of 717 s. Work on `O=C1NC(C(=O)NC2CCCCC2)Cn2cccc21` (stereo unspecified) yielded an RP-LC retention time of 651 s. For `CC(C)c1noc(-c2cc(=O)n(CC(=O)NCc3ccccc3Cl)c3ccccc23)n1`, the RP-LC retention time was 988 s. Compound `COc1cc(NS(=O)(=O)c2cc3n(c2)CCCNC3=O)cc(OC)c1` has an RP-LC retention time of 639 s. `C=CCNC(=O)c1ccc(-n2nc(C)cc2C)nc1` showed an RP-LC retention time of 739 s. `CCOc1cccc(C2CC(c3ccc(OC)c(OC)c3)=NC3(CCN(C(C)C)CC3)N2)c1O` (stereo unspecified) gave an RP-LC retention time of 604 s. With `COC(=O)c1c(-c2ccc(Cl)cc2)noc1NC(C)C` the RP-LC retention time was 1090 s. With `COc1ccc(C)cc1NC(=O)N1CCCC1c1cc(C)on1` (stereo unspecified) the RP-LC retention time was 863 s. In the case of `CC1CCN(C(=O)C2=NN(C(C)C)c3cc(Cl)ccc3S2(=O)=O)CC1`, the RP-LC retention time was 1020 s. Work on `CCCCNC(=O)c1nc(Nc2ccc(CC)cc2)c2ccccc2n1` yielded an RP-LC retention time of 916 s. `Cc1cc(N2CCCC2)nc(N2CCN(S(=O)(=O)c3ccc(-c4ccccc4)cc3)CC2)n1` gave an RP-LC retention time of 911 s. `S=c1cc(N2CCSCC2)[nH]cn1` showed an RP-LC retention time of 602 s. Compound `O=C(NCCc1c[nH]c2ccccc12)C1CCN(c2ccncc2)CC1` has an RP-LC retention time of 610 s. Compound `CCOC(=O)c1c(C)[nH]c(C(=O)N2CCCC(C(=O)NCCCN3CCOCC3)C2)c1C` (stereo unspecified) has an RP-LC retention time of 593 s. In the case of `O=C(Cc1ccc(F)cc1)Nc1ccc(-c2cn3c(C(=O)N4CCCC4)csc3n2)cc1`, the RP-LC retention time was 783 s. With `COc1ccc(N2CCN(C(=O)c3cn(-c4cc(N5CCCCC5)ncn4)cn3)CC2)cc1` the RP-LC retention time was 817 s. With `Cn1c(N2CCCC(C(=O)NCc3cccc(F)c3)C2)cc(=O)n(C)c1=O` (stereo unspecified) the RP-LC retention time was 676 s. `CN(CC(=O)N1CCN(c2ccccc2F)CC1)S(=O)(=O)c1ccc2c(c1)CCCC(=O)N2` gave an RP-LC retention time of 768 s. `COC(=O)C1=CN(c2ccc(N(C)C)cc2)c2ccc(F)cc2S1(=O)=O` showed an RP-LC retention time of 730 s. `COc1ccccc1-c1nc(Cc2noc(-c3ccc(F)cc3)n2)c(C)o1` gave an RP-LC retention time of 1040 s. `CCc1ccc(-n2cc(C(=O)OCc3cc(=O)n4ccccc4n3)c3ccccc3c2=O)cc1` showed an RP-LC retention time of 991 s. With `COCCNC(=O)C1(CCO)CCN(Cc2ccccc2)C1` (stereo unspecified) the RP-LC retention time was 560 s. For `O=C(NCc1cccs1)c1cccc(N2CCNC(c3ccccc3)C2)n1` (stereo unspecified), the RP-LC retention time was 579 s. In the case of `O=C(NCCc1ccsc1)C(=O)Nc1cccc(N2CCCCC2=O)c1`, the RP-LC retention time was 719 s. `CCOC(=O)c1noc2ncnc(N3CCCc4ccccc43)c12` gave an RP-LC retention time of 988 s. In the case of `CCn1ccc(C(=O)N2CC(c3nc(-c4ccsc4)nn3C)C2)n1`, the RP-LC retention time was 695 s. In the case of `COc1ccccc1Cc1noc(C2CN(S(=O)(=O)c3ccc(F)c(Cl)c3)C2)n1`, the RP-LC retention time was 1030 s. `CCC(=O)N1CCc2c(C(=O)N3CCN(c4ccccn4)CC3)cccc21` showed an RP-LC retention time of 589 s. With `CCN(Cc1ccc(Cl)cc1)Cc1cc(=O)n2ccccc2n1` the RP-LC retention time was 615 s. `Cc1cc(C)cc(-c2nnc(Cc3nc(-c4cccc(C(F)(F)F)c4)no3)o2)c1` showed an RP-LC retention time of 1250 s. Compound `CC(C)c1nc(-n2cccc2)sc1C(=O)NC1CC1` has an RP-LC retention time of 985 s. Compound `Cc1ccccc1NC(=O)CC1COc2ccccc2NC1=O` (stereo unspecified) has an RP-LC retention time of 700 s. For `COc1cc(CNC(=O)CCCC/C=C\C(C)C)ccc1O`, the RP-LC retention time was 947 s. In the case of `CCc1ccc(NC(=O)CSc2nnc3c4cc(-c5ccc(F)cc5)nn4ccn23)cc1`, the RP-LC retention time was 984 s. Compound `CCCN1C(=O)COc2cc(-c3noc(C(=O)NC(C)CC)n3)ccc21` (stereo unspecified) has an RP-LC retention time of 950 s. Compound `Cc1ccc(CNC(=O)Cn2c(=O)cc(-c3nc(C(C)C)no3)c3ccccc32)cc1` has an RP-LC retention time of 1010 s. `COc1ccc(-c2noc(C3CCCN3C(=O)c3ccnn3C)n2)cc1` (stereo unspecified) gave an RP-LC retention time of 808 s. Compound `O=C(CNC(=O)c1ccc(F)c(Cl)c1)Nc1nc2ccccc2[nH]1` has an RP-LC retention time of 660 s. For `CCN1CCCCc2cc(C(=O)N(C)CC(=O)NC)sc21`, the RP-LC retention time was 738 s. `Cc1ccccc1NC(=O)Nc1ccc2nncn2c1` showed an RP-LC retention time of 668 s. With `CCN(C(=O)Cn1nc2cc(-c3ccccc3)nc(C)n2c1=O)c1ccccc1` the RP-LC retention time was 985 s. Compound `CCOC(=O)C1=C(C)N(CC(=O)NC2CCCC2)c2ncnn2C1c1ccc(C)cc1` (stereo unspecified) has an RP-LC retention time of 897 s. `CCc1nn(C)c(=O)c2cc(S(=O)(=O)NCc3ccc(F)cc3Cl)cn12` showed an RP-LC retention time of 916 s. For `O=C(N[C@H]1C[C@@H]2C[C@H]1N(C(=O)NCCc1ccccc1)C2)c1ccccc1`, the RP-LC retention time was 740 s. In the case of `Cc1ccc(S(=O)(=O)N2CCCC(c3nnc(CC(C)(C)C)o3)C2)cc1C` (stereo unspecified), the RP-LC retention time was 1030 s. `O=C(CSc1ncc(-c2ccccc2)[nH]1)N1CCCc2ccccc21` gave an RP-LC retention time of 630 s. `CCNC(=O)CCc1nc2ccccc2n(CC(=O)Nc2cc(OC)cc(OC)c2)c1=O` gave an RP-LC retention time of 737 s. `CCN1C(=O)c2cccc3c(NC(=O)c4cccs4)ccc1c23` gave an RP-LC retention time of 731 s. Compound `Cc1[nH]c(C(=O)N2CCC(CC(=O)NCCCN3CCC(N4CCCCC4)CC3)CC2)c(C)c1C` has an RP-LC retention time of 575 s. With `Cc1cccc(N(C(=O)c2cnc3n(c2=O)CCS3)C2CCCCC2)c1` the RP-LC retention time was 782 s. `Cc1sc(NC(=O)C(C)(C)C)nc1-c1ccc2c(c1)NC(=O)CO2` gave an RP-LC retention time of 830 s. For `CN(C)c1ncccc1NC(=O)Nc1ccccc1F`, the RP-LC retention time was 601 s. Compound `COc1cccc(CNC(=O)CCc2nnc3c4cc(-c5ccccc5)nn4ccn23)c1` has an RP-LC retention time of 752 s. In the case of `Cn1ccc2cc(S(=O)(=O)N3CCC(C(=O)N4CCN(Cc5ccccc5)CC4)CC3)ccc21`, the RP-LC retention time was 671 s. In the case of `CCNC(=O)c1nc(C(=O)NC2CC2)cs1`, the RP-LC retention time was 631 s. For `Cc1cccc(N2CCN(C(=O)C3CCCN(c4cc(=O)n(C)c(=O)n4C)C3)CC2)c1C` (stereo unspecified), the RP-LC retention time was 874 s. `CCOc1ccc(S(=O)(=O)N2CCCC(C(=O)N3CCOCC3)C2)cc1` (stereo unspecified) showed an RP-LC retention time of 777 s. `CN(CCc1noc(-c2ccccc2)n1)C(=O)Nc1cccc(Br)c1` showed an RP-LC retention time of 977 s. In the case of `COCCNC(=O)c1ncoc1-c1ccccc1C(=O)N1CCCC1`, the RP-LC retention time was 635 s. With `CCOc1cccc(-c2noc(Cn3cnc4c(cnn4-c4cc(Cl)ccc4C)c3=O)n2)c1` the RP-LC retention time was 1230 s. `Cc1noc(C2CN(Cc3cc(Br)ccc3F)C2)n1` showed an RP-LC retention time of 554 s. Compound `O=C1C(=O)N(Cc2ccc(C(=O)N3CCOCC3)cc2)CCN1Cc1ccc(F)cc1` has an RP-LC retention time of 652 s. Compound `Cc1cccc(NC(=O)N2CCN(Cc3cn(C)c4ccccc34)CC2)c1` has an RP-LC retention time of 681 s. With `CCOC(=O)c1noc2ncnc(N(C)Cc3ccccc3)c12` the RP-LC retention time was 988 s. `O=C(NCCc1cccs1)C1CCc2nc(N3CCCC3)ncc2C1` (stereo unspecified) gave an RP-LC retention time of 857 s. `COCC1CN(Cc2ccc(OC(F)(F)F)cc2)CC12CCNCC2` (stereo unspecified) showed an RP-LC retention time of 579 s.
